From US4935438A, “Dopamine-β-hydroxylase inhibitors” (SmithKline Beckman Corporation, priority 1987, dated 1990)

What was measured:
DBH = target: T1, DBH (Homo sapiens, UniProt P09172); conditions: cited from earlier work; for DBH inhibition: literature report; for mode of DBH inhibition: literature
T1 sequence (P09172 1-617): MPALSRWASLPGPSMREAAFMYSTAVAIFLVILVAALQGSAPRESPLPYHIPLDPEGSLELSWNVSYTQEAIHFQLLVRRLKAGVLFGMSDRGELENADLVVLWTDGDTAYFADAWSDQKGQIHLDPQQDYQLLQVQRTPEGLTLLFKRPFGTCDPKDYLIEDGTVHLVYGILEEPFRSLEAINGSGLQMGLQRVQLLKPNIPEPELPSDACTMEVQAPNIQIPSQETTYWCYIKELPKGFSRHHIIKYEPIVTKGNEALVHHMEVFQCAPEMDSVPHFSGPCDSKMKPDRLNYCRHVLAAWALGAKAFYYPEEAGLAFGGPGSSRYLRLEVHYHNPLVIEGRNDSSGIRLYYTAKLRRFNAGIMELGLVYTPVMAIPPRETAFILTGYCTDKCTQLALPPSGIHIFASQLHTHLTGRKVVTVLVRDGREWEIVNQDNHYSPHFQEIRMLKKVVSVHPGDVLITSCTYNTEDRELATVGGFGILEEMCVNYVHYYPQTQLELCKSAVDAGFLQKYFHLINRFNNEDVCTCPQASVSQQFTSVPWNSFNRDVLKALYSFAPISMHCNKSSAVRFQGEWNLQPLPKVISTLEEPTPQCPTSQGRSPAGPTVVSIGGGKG

[1] = tested on: Spontaneously hypertensive rats; assay: mean arterial blood pressure in spontaneously hypertensive rats; assay type: in vivo, rat; conditions: 50 mg/kg intraperitoneally, vs vehicle treated controls
Protocol: Spontaneously hypertensive rats were treated with 2-(carboxymethylthio)-1-(3,5-difluorobenzyl)imidazole at a dose of 50 mg/kg intraperitoneally, and mean arterial blood pressure was monitored for four hours using an indwelling cannula in the femoral artery. […] The maximal blood pressure reduction was approximately 43 mmHg.

SMILES: O=C(O)c1ccc(CCC(Br)CBr)cn1 (stereo not drawn) [5-(3,4-dibromobutyl)picolinic acid]
- DBH inhibition (DBH): DBH inhibitors

SMILES: NNCc1ccccc1 [benzylhydrazine]
- mode of DBH inhibition (DBH): apparently act as competitive inhibitors

SMILES: O=C(O)CSc1nccn1Cc1cc(F)cc(F)c1 [2-(Carboxymethylthio)-1-(3,5-difluorobenzyl)imidazole]
- maximal blood pressure reduction ([1]; monitored for four hours): approximately 43 mmHg
- time blood pressure remained significantly reduced ([1]; monitored for four hours): 4 h
- time to significant blood pressure reductions following treatment [1]: ≤ 30 min

SMILES: CCCCc1ccc(C(N)=O)nc1 [Bupicomide, 5(n-butyl)picolinamine]
- DBH inhibition (DBH): DBH inhibitor

SMILES: CN(C)C(=S)SCc1ccc(C(=O)O)nc1 [5-(dimethyldithiocarbamoylmethyl)picolinic acid]
- DBH inhibition (DBH): DBH inhibitors

SMILES: NOCc1ccccc1 [Benzyloxyamine]
- mode of DBH inhibition (DBH): apparently act as competitive inhibitors

SMILES: O=C(O)c1ccc(CCCCCl)cn1 [5-(4-chlorobutyl) picolinic acid]
- DBH inhibition (DBH): inhibit DBH
